# Biological target: T1, Murine TRPV1 (Mus musculus, UniProt Q704Y3)
# T1 construct: full-length channel, eYFP fused to C terminus (pEYFP-N3), expressed in HEK293T; cDNA gift of Michael X. Zhu; homotetramer
# Assay: whole-cell patch clamp, Hill fit
# Format: cell-based
# T1 sequence (Q704Y3 whole entry, the tested form may be a part): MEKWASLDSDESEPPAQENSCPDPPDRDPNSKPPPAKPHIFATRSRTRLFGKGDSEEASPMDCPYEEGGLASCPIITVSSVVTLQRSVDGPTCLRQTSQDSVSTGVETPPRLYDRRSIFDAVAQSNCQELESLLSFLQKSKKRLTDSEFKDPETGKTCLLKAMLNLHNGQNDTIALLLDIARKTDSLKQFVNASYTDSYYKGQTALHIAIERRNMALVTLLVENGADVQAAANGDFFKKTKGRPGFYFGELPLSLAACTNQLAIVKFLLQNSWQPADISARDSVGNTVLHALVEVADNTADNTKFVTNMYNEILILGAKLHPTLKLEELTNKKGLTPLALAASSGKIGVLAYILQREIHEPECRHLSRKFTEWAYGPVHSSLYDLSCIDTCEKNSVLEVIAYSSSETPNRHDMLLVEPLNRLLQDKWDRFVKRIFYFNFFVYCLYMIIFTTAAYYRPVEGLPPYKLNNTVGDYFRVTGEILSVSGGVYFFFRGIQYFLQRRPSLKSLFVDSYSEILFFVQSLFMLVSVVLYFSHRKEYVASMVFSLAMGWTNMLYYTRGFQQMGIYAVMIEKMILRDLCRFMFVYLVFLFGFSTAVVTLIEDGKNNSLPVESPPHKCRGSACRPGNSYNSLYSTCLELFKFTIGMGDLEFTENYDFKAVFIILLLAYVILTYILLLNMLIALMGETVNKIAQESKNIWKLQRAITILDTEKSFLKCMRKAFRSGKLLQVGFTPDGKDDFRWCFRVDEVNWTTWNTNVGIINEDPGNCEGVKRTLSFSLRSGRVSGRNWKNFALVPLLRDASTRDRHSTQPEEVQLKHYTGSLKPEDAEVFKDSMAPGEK
compound,measurement,value
COc1cc(CNC(=O)CCCC/C=C/C(C)C)ccc1O [capsaicin],EC50,186 nM

# From paper PMC8425881, “De Novo Design of Peptidic Positive Allosteric Modulators Targeting TRPV1 with Analgesic Effects” (Advanced Science, 2021)
